From patent US20030109552A1, “Use of insulin sensitisers for treating renal diseases” (SmithKline Beecham p.l.c., priority 1994, published 2003)

Assays:
Assay type in all cases: in vivo, rat
obese Zucker fa/fa rats = experiment: Renal histopathology in obese Zucker fa/fa rats, 3 months dietary administration; parameters: key to Chronic Nephropathy (histopathological severity, kidney): 0: None seen; ±: Minimal; +: Mild; ++: Moderate; +++: Marked
Method: Obese Zucker rats are known to develop chronic nephropathy in addition to hyperlipidaemia, hyperinsulinaemia and peripheral insulin resistance (Kasiske et al 1985).
5-[4-[2-(N-methyl-N-(2-pyridyl)amino)ethoxy]benzyl]thiazolidine-2,4-dione (herein after referred to as ‘test compound’) was administered to 2-3 month old obese Zucker fa/fa rats by dietary administration to provide a daily dose over a period of 3 months ranging from 2.0-7.0 μmole/kg body weight. A group of age-matched obese Zucker fa/fa rats were given the same diet without the addition of the test compound, as was a group of lean Fa/? rats. At the end of the study, all of the control Zucker fa/fa rats had chronic nephropathy which involved dilated tubules, atrophied or hyperplastic tubular epithelial cells, thickened tubular basement membranes, segmented glomeruli or global glomerulosclerosis.

[1] = system: Zucker fatty (fa/fa) rats; experiment: Systolic blood pressure (tail cuff) in Zucker fatty rats, 9 month study
Method: (§1) A second study was performed in Zucker rats over a period of 9 months to investigate the longitudinal effects of the drug on systolic blood pressure and various indices of renal function, two of which are exemplified here. In one arm of the study, the drug was given in the diet (50 μmole/kg of diet) from aged 6-7weeks in Zucker fatty (fa/fa) rats, whilst in a second arm of the study, drug treatment as above was delayed until proteinuria had become established after 4 months, indicative of structural damage already present in the kidneys. A third group of Zucker fatty rats and a further group of lean rats were given diet alone throughout the period of study.
(§2) After dosing with the test compound, at monthly intervals measurements were made of systolic blood pressure, urinary total protein and urinary N-acetyl β-D-glucosaminidase (NAG) activity.
Rats were enclosed in custom-built restrainers and placed on a shelf in a warming cabinet, whose temperature was controlled at approximately 30° C. An inflatable cuff with integral pulse sensor was attached to the tail of each rat. After warming for 20-30 min the tail cuff was inflated and deflated automatically and a measurement of systolic blood pressure made using an IITC Non-Invasive Blood Pressure Monitor. This cycle was repeated several times for each rat until stable values of blood pressure were obtained.

[2] = system: Zucker fatty (fa/fa) rats; experiment: Urinary total protein (Bio-Rad protein assay, 24 h urine) in Zucker fatty rats, 9 month study
Method: A second study was performed in Zucker rats over a period of 9 months to investigate the longitudinal effects of the drug on systolic blood pressure and various indices of renal function, two of which are exemplified here. […] A third group of Zucker fatty rats and a further group of lean rats were given diet alone throughout the period of study. After dosing with the test compound, at monthly intervals measurements were made of systolic blood pressure, urinary total protein and urinary N-acetyl β-D-glucosaminidase (NAG) activity. Twenty-four hour urine collections, made in metabolism cages, were aliquoted and frozen at −70° C. until required for assay. Urinary protein concentration was measured using the Bio-Rad protein assay as modified for use in a 96-well microtitre plate. The assay is a dye-binding assay based on the differential colour change of a dye in response to various concentrations of protein (Bradford, Anal. Biochem., 72, 248, 1976). After a period of incubation with Dye Reagent, diluted urine samples are read at an optical density of 595 nm using a Molecular Devices multiplate reader.

[3] = system: Zucker fatty (fa/fa) rats; experiment: Urinary N-acetyl β-D-glucosaminidase (NAG) activity in Zucker fatty rats, 9 month study
Method: as §1, §2
Twenty-four hour urine collections, made in metabolism cages, were aliquoted and frozen at −70° C. until required for assay.
NAG activity was assayed using a reagent kit on a Hitachi 717 analyser (both supplied by Boehringer Mannheim UK, Lewes). Enzyme activity was measured by monitoring the rate of chlorophenol (570 nm) released from the substrate chlorophenol red-β-D-glucosaminide.

[4] = Zucker fatty (fa/fa) rats treated from the age of 6-7 weeks for 9 months via the diet
[5] = drug treatment commenced after proteinuria had become established

CN(CCOc1ccc(CC2SC(=O)NC2=O)cc1)c1ccccn1 (stereo not drawn) [Test Compound, 5-[4-[2-(N-methyl-N-(2-pyridyl)amino)ethoxy]benzyl]thiazolidine-2,4-dione]
Chronic Nephropathy (histopathological severity, kidney) (obese Zucker fa/fa rats; individual fatty Zucker rats, test compound in diet 2.0-7.0 μmole/kg body weight daily): ++
incidence and degree of chronic nephropathy compared to control Zucker fa/fa rats (obese Zucker fa/fa rats; obese Zucker fa/fa rats, diet, 2.0-7.0 μmole/kg daily): reduction in the incidence and degree of chronic nephropathy
hydronephrosis seen in treated rats (obese Zucker fa/fa rats; obese Zucker fa/fa rats, diet, 2.0-7.0 μmole/kg daily, controls 4/9): No hydronephrosis was seen
development of hypertension [1, 4]: prevented the development of hypertension
systolic blood pressure (further rise) [1, 5]: prevented from rising further
rate of development of proteinuria [2, 4]: markedly reduced
rate of increase in the urinary protein concentration [2, 5]: marked reduction of the rate of increase
elevation of urinary NAG activity [3, 4]: markedly reduced
urinary NAG activity (further rise) [3, 5]: prevented from rising further
